From patent US20260315567A1, “POLYMERIC LEUPROLIDE ACETATE FORMULATIONS” (Tolmar International Limited, priority 2023, published 2026)

Assays:
[1] = LA gelation studies of drug solutions (e-beam irradiated, 60 °C with agitation, inversion test); assay type: physicochemical; details: 150 rpm, up to 16 days, leuprolide acetate content
Method: Drug solutions were prepared as described above and filled into syringes or glass vials. Syringes were untreated, contained various amounts of silicone, or were plasma coated for lubrication. Samples were irradiated by e-beam irradiation at not less than 25 kGy and stored at accelerated conditions of 60° C. with agitation at 150 rpm for up to 16 days. Samples were inspected periodically to determine if the drug solution remained a solution or had formed a solid/gel by an inversion test. Samples that had “gelled” were transferred to 5° C. for subsequent testing.
The gelation rate for each sample was calculated as Rate=1/(simulated 5° C. age at time of gelation in days). The Arrhenius equation was used to determine the simulated age, assuming standard reaction rate doubling for every 10° C. increase in temperature. […] Data was analyzed using JMP. […] Container type and lubrication were not significant.
Samples were tested for leuprolide content by HPLC. Leuprolide content was then converted to leuprolide acetate by multiplying by 1.078 (based on molecular mass ratios). A marked difference in leuprolide acetate content between the gelled and non-gelled samples was seen, with the tipping point between solution and solid/gelled samples occurring at about 45% LA.

[2] = Solubility of LA in organic solvent; assay type: physicochemical; details: in NMP or DMSO
From the text: To produce the drug/solvent bulk solution comprising the API (LA), the desired amount of the LA was combined with the solvent NMP or DMSO or combination of solvents with or without a co-solvent or other additives, in the indicated amounts (see individual experiments below). The API and solvent were combined in a glass vial or jar. Jars were mixed using the jar mill, Turbula, or shaker at room temperature until homogeneous. LA is soluble in NMP or DMSO and can load higher concentrations (at least 40% w/w). After dissolving the API in the organic solvent, the bulk solution was manually filled into syringes and capped with a tip cap. The syringes used for filling were either 1.2 mL male polypropylene syringes, 1.2 mL male cyclic olefin copolymer syringes or 1 mL male cyclic olefin copolymer syringes. Filled syringes were then packaged in labeled foil pouches with a Syringe A (polymer-solvent solution) and a desiccant pack and the pouches were sealed. After filling the syringes with the formulations, they were terminally sterilized with an external radiation dose of 30 kGy from e-beam processing. After terminal sterilization, the syringes were stored under refrigerated conditions (e.g., 2-8° C.) or accelerated conditions (>25° C. see individual experiments).

tipping point between solution and solid/gelled samples [1]: about 45 % LA
solubility (loading) [2]: at least 40 % w/w
Compound: CCNC(=O)[C@@H]1CCCN1C(=O)[C@H](CCCNC(=N)N)NC(=O)[C@H](CC(C)C)NC(=O)[C@@H](CC(C)C)NC(=O)[C@H](Cc1ccc(O)cc1)NC(=O)[C@H](CO)NC(=O)[C@H](Cc1c[nH]c2ccccc12)NC(=O)[C@H](Cc1c[nH]cn1)NC(=O)[C@@H]1CCC(=O)N1 [LA, leuprolide acetate]
